Format in all cases: in vivo, Male Sprague Dawley rats
The subject of data set [1] is Toll-Like Receptors 4 (TLR4) gene expressions. In words: TLR4 gene expression in cardiac tissue by real-time quantitative PCR. The protocol:
(§1) This experimental protocol was permitted by the Institutional Animal Care and Use Committee of King Faisal University. All the experiments were executed in harmony with the relevant procedures and regulations of the Ethical Conduct for the Use of Animals in Research at King Faisal University. Male Sprague Dawley rats weighing 150-200 g were purchased and accommodated in polypropylene cages and upheld at 27±2° C. under a 12 h light/dark sequence. Rats were kept and observed for 1 week in the animal house. The animals were fed with standard rat feed and allowed water ad libitum.
Animals were distributed into 5 groups, each group containing 6 rats (n=6). Group 1 is the control group in which animals were injected with normal saline intraperitoneally (IP). Group 2: The animals were treated with Pazopanib 30 mg/kg twice daily orally for 14 days to induce hypertension. This group represents the “Experimental animal model for hypertension.” Group 3: The animals were treated with Pazopanib 100 mg/kg orally as a single dose. […] This group represents the “Experimental animal model for Cardiac toxicity (IP)”
Blood samples were collected, and centrifuged (10 min/4000 rpm) to separate serum which was then stored in a −80° C. for biochemical analysis. […]
Total RNA was extracted from the cardiac tissue samples according to the Trizol kit instructions. […] The TLR4 primer (5′-[…]-3′ (SEQ ID NO: 1), 3′-[…]-5′ (SEQ ID NO: 2)), TLR2 (5′-[…]-3′ (SEQ ID NO: 3), 3′-[…]-5′ (SEQ ID NO: 4)), MYD88 (5′-[…]-3′ (SEQ ID NO: 5), 3′-[…]-5′ (SEQ ID NO: 6)) were used to detect and quantify related genes in the cDNA using Real-time quantitative PCR. In a 25 μL reaction volume, PCR was performed as follows: initial denaturation for 4 min at 94° C., followed by denaturation for 30 s at 94° C., annealing for 30 s at 62° C., and extension for 2 min at 72° C. for 35 cycles, and final extension for 10 min at 72° C. qPCR was applied using SYBR ExScript RT-PCR kit, and quantification examinations were accomplished via an Opticon-2 Real-time PCR reactor (MJ Research, Capital Court, Reno, NV, USA). qPCR results were obtained using Step PE Applied Biosystems (Waltham, MA, USA) software. Relative gene expression data were calculated using the (2-ΔΔCq2) method and presented as a fold change. Target gene expressions were assessed and related to the internal reference β-actin gene using the primer (5′-ATCCTGCGTCTGGACCTGG-3′ (SEQ ID NO: 7), 5′-[…]-3′ (SEQ ID NO: 8)), and the results were presented in the figures as relative expressions.
(§2) Data were expressed as mean±standard error of the mean (SEM) for six animals (n=6) in each group. Statistically significant differences between the groups were determined using one-way ANOVA followed by Tukey's test as a post-hoc analysis. […]

Data set [2] is described as follows: Cardiac toxicity identification: serum cardiac marker levels by ELISA. Conditions: compared with normal rats, p<0.05. The protocol:
as §1
Animals were distributed into 5 groups, each group containing 6 rats (n=6). Group 1 is the control group in which animals were injected with normal saline intraperitoneally (IP). Group 2: The animals were treated with Pazopanib 30 mg/kg twice daily orally for 14 days to induce hypertension. This group represents the “Experimental animal model for hypertension.” Group 3: The animals were treated with Pazopanib 100 mg/kg orally as a single dose. This group represents the “Experimental animal model for arrhythmia.” Group 4: The animals were treated with Pazopanib 300 mg/kg/day orally for 21 days. […] This group represents the “Experimental animal model for Cardiac toxicity (IP)”
Blood samples were collected, and centrifuged (10 min/4000 rpm) to separate serum which was then stored in a −80° C. for biochemical analysis. Thereafter, the anaesthetized animals were sacrificed, and the hearts of different investigational groups were separated, and stored in a −80° C. for subsequent biochemical parameters determination.
ELISA kits, following the manufacturer's instructions, were used to measure serum cardiac marker levels of CPK, CK-MB, cTnT, cTnI and LDH.
(§3) Data were expressed as mean±standard error of the mean (SEM) for six animals (n=6) in each group. Statistically significant differences between the groups were determined using one-way ANOVA followed by Tukey's test as a post-hoc analysis. In all cases, probability values of p<0.05 were taken as statistically significant.

Data set [3] can be described thus: Electrocardiogram (ECG) recording for arrhythmia identification, experimental animal model for arrhythmia. Conditions: 100 mg/kg orally single dose, after 3 hours. How it is done: as §1
(§4) Animals were distributed into 5 groups, each group containing 6 rats (n=6). Group 1 is the control group in which animals were injected with normal saline intraperitoneally (IP). Group 2: The animals were treated with Pazopanib 30 mg/kg twice daily orally for 14 days to induce hypertension. This group represents the “Experimental animal model for hypertension.” Group 3: The animals were treated with Pazopanib 100 mg/kg orally as a single dose. This group represents the “Experimental animal model for arrhythmia.” Group 4: The animals were treated with Pazopanib 300 mg/kg/day orally for 21 days. This group represents the “Experimental animal model for Cardiac toxicity (oral)” Group 5: The animals were treated with Pazopanib 21 mg/kg/day intraperitoneally (IP) for 30 days. This group represents the “Experimental animal model for Cardiac toxicity (IP)”
At the end of the experiments, urethane-anaesthetized rats (1.5 g/kg) were placed in a prone position on a board, and an ECG was continuously recorded using noninvasive computerized ECG apparatus from Kent Scientific (Torrington, CT, USA). Heart rate, ST segment, P wave, QT, P-R and R-R intervals, and QRS complex were calculated from ECG recordings electronically.
as §3

Data set [4] can be described thus: Blood pressure recording, noninvasive tail-cuff system, experimental animal model for hypertension. Conditions: 30 mg/kg twice daily orally for 14 days; compared to normal animals. The protocol: as §1, §4
Blood pressure measurements were performed using a noninvasive computerized tail-cuff system from Emka Technologies' Systems (Paris, France), which involved placing a cuff on the animal's tail to occlude the blood flow. The pressure was raised and then slowly released. The cuff pressure when the pulse signal reappears is intended as the systolic pressure. […]
as §2

[5] abbreviates: 30 mg/kg/day intraperitoneally (IP) for 21 days.
[6] abbreviates: 300 mg/kg/day orally for 21 days.

On to `Cc1ccc(Nc2nccc(N(C)c3ccc4c(C)n(C)nc4c3)n2)cc1S(N)(=O)=O` [Pazopanib], for which, in data set [1] (arrhythmia model: 100 mg/kg orally as a single dose), the TLR4 gene expression result is given as “significantly increased”. Besides, the TLR4 gene expression entry in data set [1] (cardiotoxicity model: 30 mg/kg/day intraperitoneally (IP) for 30 days) is listed as “significantly increased”. In addition, the TLR4 gene expression entry in data set [1] (cardiotoxicity model: 300 mg/kg/day orally for 30 days) is listed as “significantly increased”. In data set [1] (hypertension model: 30 mg/kg twice daily orally for 14 days), the TLR4 gene expression entry was “significantly increased”. In data set [2] (setting [5]), the “serum cardiac troponin I (cTnI)” value was “augmented”, the “serum cardiac troponin T (cTnT)” value is listed as “augmented”, the “serum creatine kinase-myocardial bound (CK-MB)” value is given as “augmented” and the “serum creatine phosphokinase (CPK)” value is listed as “augmented”. Moreover, the “serum lactate dehydrogenase (LDH)” value in data set [2] (setting [5]) was “augmented”. In addition, in data set [2] (setting [6]), the “serum cardiac troponin I (cTnI)” value was “augmented”, the “serum cardiac troponin T (cTnT)” value is listed as “augmented”, the “serum creatine kinase-myocardial bound (CK-MB)” value is listed as “augmented” and the “serum creatine phosphokinase (CPK)” value was “augmented”. The “serum lactate dehydrogenase (LDH)” value in data set [2] (setting [6]) is “augmented”. In addition, in data set [3], the P-R interval entry is listed as “shortening”, the R-R interval entry is “shortening” and the p wave duration result is recorded as “shortening”. Further, in data set [3] (compared to control, p<0.05), the “QRS interval (QRS complex duration)” value is recorded as “prolongation”, the QT interval entry is “prolongation” and the ST segment amplitude result was “elevation”. In addition, in data set [4], the diastolic blood pressure result was “elevated”, the mean blood pressure result is “elevated” and the systolic blood pressure result was “elevated”.

Source of the values: patent US11903944B1, “Experimental model using pazopanib-induced cardiotoxicity” (KING FAISAL UNIVERSITY, priority 2023, dated 2024).
